What was measured:
[1] = tested on: nematode; settings: Drinking Assay, WO 01/88532; cited from earlier work
[2] = target: T1, cotton aphid seizure D2 (Aphis gossypii, UniProt A0A9P0IRJ5, DEL620-651/K982T, form not given); experiment: Electrophysiological analysis by two-electrode voltage clamp (TEVC) method using Xenopus laevis oocyte; format: cell-based; settings: read-out: IC50 on cotton aphid seizure D2, protocol IV
Excerpt: Regarding four kinds of cotton aphid seizure splice variants (D1, D2, E1, E2), a gene optimal for producing a gene-recombinant nematode was selected by electrophysiological analysis by the two-electrode voltage clamp method (TEVC method) using an oocyte of Xenopus laevis.
In order to continuously maintain circulation and cleaning of water, female Xenopus laevis was reared in a water bath equipped with an air pump and a filtration device. For Xenopus laevis, a laboratory rearing line was purchased from NASCO (Fort Atkinson, Wis., USA), and adapted to a dry sample, and used in an experiment. Xenopus laevis was reared in tap water retained at a water temperature of 18° C., and a light/dark cycle of each 12 hours was artificially given. Xenopus laevis was anesthetized using a 2 g/l tolycaine aqueous solution, and subsequently cooled with an ice. […]
Using an amplifier TEC-03X manufactured by npi electronics (Tamm, Germany), and software Cellworks, an electrophysiological measurement was performed by the two-electrode voltage clamp method. Experimental data was recorded at room temperature (20 to 25° C.). […]
An activity of a compound was measured using protocol IV by the following procedure. […]
At each test concentration, an amplitude of a current waveform in last three times of continuous pulses was averaged, and a calculated current value was used for calculating an inhibition degree. […]

[3] = tested on: Aphis gossypii; experiment: Pesticidal activity test on artificial feed; format: in vivo; settings: 50 ppm in artificial feed, six days, controlling value of 30% or more = active
Protocol: Then, according to the same manner as that of the method described in Handbook of Insect Rearing Vol. 1 (Elsevier Science Publishers 1985) pp. 35 to pp. 36 except that a test compound dissolved in DMSO to a final concentration of 50 ppm was added at 0.5% volume of the artificial feed, and components were mixed, Aphis gossypii was reared. […] Controlling value(%)={1−(Cb×Tai)/(Cai×Tb)}×100 Letters in the equation represent the following meanings. Cb: Number of surviving worms before treatment in non-treated section Cai: Number of surviving worms at observation in non-treated section Tb: Number of surviving worms before treatment in treated section Tai: Number of surviving worms at observation in treated section

[4] = target: nematode functionally expressing cotton aphid seizure (Aphis gossypii, UniProt A0A9P0IRJ5, DEL620-651/K982T, form not given); experiment: Feeding behavior activity (calcein AM intake) of recombinant nematode UG2346 functionally expressing cotton aphid seizure; format: in vivo; settings: read-out: Activity to inhibit feeding behavior of nematode functionally expressing cotton aphid seizure (IC50), 0.03-100 μM
Protocol: In the pharynx of a gene-altered nematode, change in electric activity in cotton aphid seizure influences on an action of the pharynx, that is, intake of food. Therefore, the ability to change an activity of cotton aphid seizure can be measured as the ability to change intake of food, of the gene-recombinant nematode.
Intake of food of the nematode was measured by a method of adding a fluorescent dye precursor to a medium. Specifically, since the fluorescent dye precursor orally taken by the nematode is enzymatically converted into a fluorescent dye in the gut, and a fluorescent signal emitted by the gene-recombinant nematode is increased, intake of food of the nematode can be measured as a fluorescent signal emitted by the nematode.
For measuring the activity to change a feeding behavior activity of a nematode expressing cotton aphid seizure in a functional form, a fluorescent dye precursor was added to a liquid medium containing the nematode expressing cotton aphid seizure in a functional form, and intake of the fluorescent dye precursor orally ingested by the nematode was detected as a fluorescent signal emitted by the nematode. When intake of the fluorescent dye precursor was defined as a feeding behavior activity, an influence of a test substance on a feeding behavior activity was assessed as an influence, on an activity of cotton aphid seizure. […]

[5] = target: T1, cotton aphid seizure D2; experiment: Whole cell patch clamp method using CHO cell expressing cotton aphid seizure D2; format: cell-based; settings: 30 μM clofilium
Protocol: Using a CHO cell expressing cotton aphid seizure D2, an activity of a voltage-gated potassium channel was measured by a whole cell patch clamp method.
According to a general tissue culturing procedure, pGBB036 produced in Example 5 was transiently introduced into the CHO cell. In order to confirm that gene introduction is successful, a GFP gene which is a fluorescent marker was simultaneously introduced into the CHO cell. A ratio of pGBB036 and the marker gene was 10:1. It was possible to simply identify the cell for which gene introduction was successful with an incident-light fluorescence microscope. After cultured for 24 hours, the gene-introduced cell was dispensed, frozen, and immediately cryopreserved at −150° C. On the day before implementation of an electrophysiological experiment, the cryopreserved cell was suspended in a fresh medium again, and the cell was seeded on a cover glass having a diameter of 12 mm which was spread in a petri dish. The petri dish was retained at a temperature of 37° C. under the condition of CO2 at a 5% concentration. […]
Recording by the whole cell patch clamp method was implemented on one CHO cell. […] Recorded signals were all amplified with an amplifier PC-501A manufactured by Warner Instruments (Hamden, Conn., USA) and, thereafter, was digitalized at 10 kHz. […]

[6] = target: T1, cotton aphid seizure D2; experiment: Electropharyngeogram of recombinant nematode UG2242 expressing cotton aphid seizure D2; format: in vivo
Protocol: By recording a electropharyngeogram using UG2242 which is a transient transformed line, and UG2346 which is a stable transformed line, it was confirmed that the introduced cotton aphid seizure gene was expressed in a functional form.
An imago of a nematode reared at 20° C. was prepared. Using Dent's saline (composition in mM; D-glucose 10 mM, HEPES 10 mM, NaCl 140 mM, KCl 6 mM, CaCl2 3 mM, MgCl2 1 mM, pH 7.4) containing 20 mM serotonin promoting pumping as a chamber internal solution, the nematode was placed into the chamber. Aspiration was performed until the Dent's saline which is a chamber internal solution was contacted with an electrode in a micropipette. After mild aspiration, a head of the nematode was inserted into a tip of a pipette for recording. Data was obtained with an amplifier (Multiclamp 700-A, Axon instruments) and an A/D converter (Digidata 1322A, Axon instruments).

T1 sequence (A0A9P0IRJ5 entry or part of it DEL620-651/K982T, form open): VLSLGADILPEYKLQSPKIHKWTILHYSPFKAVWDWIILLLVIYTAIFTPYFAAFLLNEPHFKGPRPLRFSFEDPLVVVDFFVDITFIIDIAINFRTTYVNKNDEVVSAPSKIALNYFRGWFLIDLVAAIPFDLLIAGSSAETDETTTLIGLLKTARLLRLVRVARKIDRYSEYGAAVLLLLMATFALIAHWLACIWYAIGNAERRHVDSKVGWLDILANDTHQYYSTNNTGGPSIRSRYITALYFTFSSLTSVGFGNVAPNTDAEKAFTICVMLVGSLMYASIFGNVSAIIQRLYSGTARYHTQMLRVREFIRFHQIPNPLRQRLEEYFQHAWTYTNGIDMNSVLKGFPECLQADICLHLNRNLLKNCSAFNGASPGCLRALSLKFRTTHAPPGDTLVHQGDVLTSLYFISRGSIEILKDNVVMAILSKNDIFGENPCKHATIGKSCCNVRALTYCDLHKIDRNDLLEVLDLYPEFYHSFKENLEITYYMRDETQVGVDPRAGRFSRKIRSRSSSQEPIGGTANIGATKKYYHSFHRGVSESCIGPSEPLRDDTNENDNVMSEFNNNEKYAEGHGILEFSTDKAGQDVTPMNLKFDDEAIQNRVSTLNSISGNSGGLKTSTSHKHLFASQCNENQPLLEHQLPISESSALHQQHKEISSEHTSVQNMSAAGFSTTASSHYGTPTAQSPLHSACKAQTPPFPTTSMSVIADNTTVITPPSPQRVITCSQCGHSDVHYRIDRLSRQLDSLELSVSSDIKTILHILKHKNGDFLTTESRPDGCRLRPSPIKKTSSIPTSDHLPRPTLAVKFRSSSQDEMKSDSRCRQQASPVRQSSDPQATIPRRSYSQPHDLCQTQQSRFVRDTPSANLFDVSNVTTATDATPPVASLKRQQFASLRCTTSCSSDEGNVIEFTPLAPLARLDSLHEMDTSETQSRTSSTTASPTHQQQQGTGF
Sequence of nematode functionally expressing cotton aphid seizure (A0A9P0IRJ5 entry or part of it DEL620-651/K982T, form open): as above

Question: Which “food intake by a nematode” value [1] does the source give for ivermectin here?
Answer: The value was “inhibits food intake”.

Question: Which IC50 [2] does the source give for `CN(CCOc1ccc(NS(C)(=O)=O)cc1)CCc1ccc(NS(C)(=O)=O)cc1` [Dofetilide] here?
Answer: The IC50 was about 23 µM.

Question: What does the source list for `CCCCCCC[N+](CC)(CC)CCCCc1ccc(Cl)cc1.Cc1ccc(S(=O)(=O)[O-])cc1` [clofilium]?
Answer: Result of determination of insecticidal activity [3]: Having insecticidal activity; IC50 [4]: 4 µM; activity of a channel inhibited relative to non-treatment [5]: 86%; length of a potential waveform in electropharyngeogram ([6]; 5 μM treatment for 5 minutes): significantly increased; potential waveform in electropharyngeogram ([6]; 5 μM treatment, after 15 minutes): the same potential waveform as that of a wild-type; IC50 [2]: ~1 µM

Question: With `CN(C)CCCN1c2ccccc2CCc2ccc(Cl)cc21` [clomipramine] as the compound, how does the “food intake by a nematode” value [1] read?
Answer: Its value is “increases food intake”.

Reference: patent publication US20120131687A1 (priority 2008, published 2012)
